# From patent US5372816A, “Trehalostatin and process for the preparation thereof” (Suntory Limited, priority 1989, dated 1994)
# How the values were obtained:
# [1] = Solubility of Trehalostatin; assay type: physicochemical
# Taka-amylase A (yeast) = target: T1, Taka-amylase A (yeast) (Saccharomyces cerevisiae, UniProt P00724); assay: Enzyme inhibition spectrum: Taka-amylase A (yeast), sucrose substrate; assay type: biochemical; set-up: key: ++: ID50 ≤ 1.0 μg; +: ID50 ≥ 1.0 μg; -: no inhibition; details: enzyme 100 μg; pH 5.5, 0.1% sucrose; measuring method A
# T1 sequence (P00724 20-532): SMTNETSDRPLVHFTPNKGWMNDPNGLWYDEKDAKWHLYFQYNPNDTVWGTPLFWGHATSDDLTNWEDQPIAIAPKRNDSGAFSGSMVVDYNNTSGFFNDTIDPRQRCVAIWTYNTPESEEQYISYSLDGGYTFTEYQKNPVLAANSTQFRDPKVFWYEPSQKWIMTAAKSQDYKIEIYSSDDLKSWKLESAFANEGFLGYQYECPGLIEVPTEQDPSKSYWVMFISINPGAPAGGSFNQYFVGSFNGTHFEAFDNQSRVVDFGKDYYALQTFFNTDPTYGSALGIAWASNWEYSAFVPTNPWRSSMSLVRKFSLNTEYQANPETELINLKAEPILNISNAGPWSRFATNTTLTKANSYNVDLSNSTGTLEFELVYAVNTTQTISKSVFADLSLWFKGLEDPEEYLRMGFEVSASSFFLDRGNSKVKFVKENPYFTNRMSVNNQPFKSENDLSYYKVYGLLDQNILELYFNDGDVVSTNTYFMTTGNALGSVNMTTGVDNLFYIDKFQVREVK
# Procedure: (§1) Each enzyme (200 μl) is incubated with Trehalostatin (0.01-50 μg) in 0.05 M acetate (pH 5-6) or phosphate (pH 6-7) buffer solution at 37° C. for 5 minutes. Then 20 μl of the resulting solution is collected and added with a substrate to a final concentration shown in the Table, making the total volume of the solution 100 μl. The mixture is incubated at 37° C. for 10 minutes and then incubated in a boiling water bath for 3 minutes to terminate the reaction.
# (§2) Determination of activity was made by measuring the increase of the product in the reaction system according to the following methods A-C.
# (§3) The quantity of Trehalostatin which can effect 50% inhibition of enzyme activity under the above-described conditions was indicated as ID50.
# (§4) (A) The glucose produced was determined by the new blood sugar test devised by Boehringer-Mannheim Ltd.
# Gluco amylase (almond) = assay: Enzyme inhibition spectrum: Gluco amylase (almond), salicin substrate; assay type: biochemical; set-up: key: ++: ID50 ≤ 1.0 μg; +: ID50 ≥ 1.0 μg; -: no inhibition; details: enzyme 10 μg; pH 5.0, 0.5% salicin; measuring method A
# Procedure: as §1, §2, §3, §4
# [2] = target: Bacterial liquefying amylase (Bacillus amyloliquefaciens, UniProt P00692); assay: Enzyme inhibition spectrum: bacterial liquefying amylase; assay type: biochemical; set-up: key: ++: ID50 ≤ 1.0 μg; +: ID50 ≥ 1.0 μg; -: no inhibition; details: enzyme 0.4 μg; pH 5.0, 0.5% starch; measuring method C
# Sequence of Bacterial liquefying amylase (P00692 32-514): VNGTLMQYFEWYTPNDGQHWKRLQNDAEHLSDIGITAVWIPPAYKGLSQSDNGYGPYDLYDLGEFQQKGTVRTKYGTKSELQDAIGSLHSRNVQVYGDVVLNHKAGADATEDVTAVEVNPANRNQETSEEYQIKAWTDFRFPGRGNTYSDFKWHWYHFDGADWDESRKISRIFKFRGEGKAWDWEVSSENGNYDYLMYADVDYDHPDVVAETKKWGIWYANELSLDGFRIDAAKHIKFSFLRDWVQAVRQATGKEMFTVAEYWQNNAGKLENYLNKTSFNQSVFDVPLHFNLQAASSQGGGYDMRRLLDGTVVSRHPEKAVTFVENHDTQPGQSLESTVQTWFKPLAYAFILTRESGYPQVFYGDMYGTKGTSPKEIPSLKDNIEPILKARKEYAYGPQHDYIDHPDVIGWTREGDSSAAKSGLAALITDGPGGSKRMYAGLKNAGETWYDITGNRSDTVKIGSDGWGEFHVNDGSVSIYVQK
# Procedure: as §1, §2, §3
# (§5) (C) The increase of an amount of reducing sugar produced was measured according to the method shown in J. A. Thoma et al., The Enzyme, 3rd. ed., Ch. 5, pp. 115-189 (1971).
# Isoamylase = target: T2, Isoamylase (Pseudomonas amyloderamosa, UniProt P10342); assay: Enzyme inhibition spectrum: isoamylase; assay type: biochemical; set-up: key: ++: ID50 ≤ 1.0 μg; +: ID50 ≥ 1.0 μg; -: no inhibition; details: enzyme 100 μg; pH 5.5, 0.5% starch; measuring method C
# T2 construct: purchased Shin Nippon Kagaku Co., Ltd
# T2 sequence (P10342 27-776): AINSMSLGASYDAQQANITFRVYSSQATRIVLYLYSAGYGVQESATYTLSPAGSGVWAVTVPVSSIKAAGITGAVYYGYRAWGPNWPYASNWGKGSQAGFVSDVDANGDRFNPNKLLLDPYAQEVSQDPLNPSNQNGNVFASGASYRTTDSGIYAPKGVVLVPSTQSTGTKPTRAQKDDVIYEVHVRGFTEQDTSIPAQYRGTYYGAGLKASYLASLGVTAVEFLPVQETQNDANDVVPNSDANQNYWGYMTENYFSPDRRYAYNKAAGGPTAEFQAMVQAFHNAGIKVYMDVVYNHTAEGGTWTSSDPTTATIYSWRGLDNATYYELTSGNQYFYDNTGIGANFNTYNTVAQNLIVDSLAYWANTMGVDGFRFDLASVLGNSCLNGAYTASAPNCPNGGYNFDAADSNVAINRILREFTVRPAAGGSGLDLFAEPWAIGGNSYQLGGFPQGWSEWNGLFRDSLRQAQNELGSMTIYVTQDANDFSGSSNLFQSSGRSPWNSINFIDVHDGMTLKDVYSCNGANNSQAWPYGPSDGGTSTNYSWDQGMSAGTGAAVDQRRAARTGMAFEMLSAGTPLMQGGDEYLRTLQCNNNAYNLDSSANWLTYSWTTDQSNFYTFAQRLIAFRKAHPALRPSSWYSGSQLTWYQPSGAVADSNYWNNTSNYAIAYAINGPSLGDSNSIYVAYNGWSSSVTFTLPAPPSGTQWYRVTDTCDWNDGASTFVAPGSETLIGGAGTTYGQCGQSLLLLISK
# Procedure: as §1, §2, §3, §5
# [3] = test system: avicelase (Asp. aculeatus); assay: Enzyme inhibition spectrum: avicelase (Asp. aculeatus); assay type: biochemical; set-up: key: ++: ID50 ≤ 1.0 μg; +: ID50 ≥ 1.0 μg; -: no inhibition; details: enzyme 2000 μg; pH 5.0, 0.5% avicel; measuring method C
# Procedure: as §1, §2, §3, §5
# [4] = test system: Invertase (bovine colonic mucosa); assay: Enzyme inhibition spectrum: invertase (bovine colonic mucosa); assay type: biochemical; set-up: key: ++: ID50 ≤ 1.0 μg; +: ID50 ≥ 1.0 μg; -: no inhibition; details: enzyme 5000 μg; pH 6.0, 0.1% sucrose; measuring method A
# Procedure: as §1, §2, §3, §4
# β-amylase (sweet potato) = target: T3, β-amylase (sweet potato) (Ipomoea batatas, UniProt P10537); assay: Enzyme inhibition spectrum: β-amylase (sweet potato); assay type: biochemical; set-up: key: ++: ID50 ≤ 1.0 μg; +: ID50 ≥ 1.0 μg; -: no inhibition; details: enzyme 12.5 μg; pH 5.0, 0.5% starch; measuring method C
# T3 construct: purchased Sigma; host or cells: sweet potato
# T3 sequence (P10537 whole entry): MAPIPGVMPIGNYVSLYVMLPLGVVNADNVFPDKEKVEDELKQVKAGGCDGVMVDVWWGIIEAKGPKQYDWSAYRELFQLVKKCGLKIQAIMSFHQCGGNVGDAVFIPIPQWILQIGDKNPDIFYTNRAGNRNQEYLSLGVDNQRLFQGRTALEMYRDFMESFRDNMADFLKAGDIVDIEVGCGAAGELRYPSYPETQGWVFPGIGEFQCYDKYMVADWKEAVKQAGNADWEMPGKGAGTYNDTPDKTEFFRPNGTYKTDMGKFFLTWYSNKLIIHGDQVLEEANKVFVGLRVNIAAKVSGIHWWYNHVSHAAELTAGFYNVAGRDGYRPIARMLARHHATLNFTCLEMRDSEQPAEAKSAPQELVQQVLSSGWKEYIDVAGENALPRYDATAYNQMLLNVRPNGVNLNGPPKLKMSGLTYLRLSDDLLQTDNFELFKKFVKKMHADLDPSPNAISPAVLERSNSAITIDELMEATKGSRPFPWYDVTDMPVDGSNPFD
# Procedure: as §1, §2, §3, §5
# α-glycosidase (yeast) = target: T4, α-glycosidase (yeast) (Saccharomyces cerevisiae, UniProt P53341); assay: Enzyme inhibition spectrum: α-glycosidase (yeast); assay type: biochemical; details: enzyme 1 μg; pH 7.1, 5 mM P-nitrophenyl glycoside; measuring method A
# T4 construct: purchased TOYOBO Co., Ltd; host or cells: yeast
# T4 sequence (P53341 whole entry): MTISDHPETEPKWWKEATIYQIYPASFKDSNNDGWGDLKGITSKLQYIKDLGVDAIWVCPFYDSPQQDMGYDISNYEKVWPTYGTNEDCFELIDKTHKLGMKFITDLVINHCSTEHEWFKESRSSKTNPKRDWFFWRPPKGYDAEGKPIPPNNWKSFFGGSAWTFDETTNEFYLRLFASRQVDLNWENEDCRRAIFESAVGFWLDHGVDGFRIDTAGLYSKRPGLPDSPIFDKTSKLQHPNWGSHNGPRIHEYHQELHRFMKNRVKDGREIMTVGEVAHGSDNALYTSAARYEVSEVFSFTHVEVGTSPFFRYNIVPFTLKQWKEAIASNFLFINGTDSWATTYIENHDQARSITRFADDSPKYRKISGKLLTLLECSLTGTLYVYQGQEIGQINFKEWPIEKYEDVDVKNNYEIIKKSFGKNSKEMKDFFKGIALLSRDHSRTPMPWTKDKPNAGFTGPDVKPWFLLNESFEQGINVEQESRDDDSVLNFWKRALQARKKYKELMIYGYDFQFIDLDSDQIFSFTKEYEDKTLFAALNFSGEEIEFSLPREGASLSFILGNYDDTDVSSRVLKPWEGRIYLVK
# Procedure: as §1, §2, §3, §4
# [5] = test system: Gluco amylase (Rhizopus niveus); assay: Enzyme inhibition spectrum: Gluco amylase (Rhizopus niveus); assay type: biochemical; set-up: key: ++: ID50 ≤ 1.0 μg; +: ID50 ≥ 1.0 μg; -: no inhibition; details: enzyme 2 μg; pH 5.5, 0.5% starch; measuring method A
# Procedure: as §1, §2, §3, §4
# [6] = test system: Trehalase (Aldrichina grahami); assay: Enzyme inhibition spectrum: trehalase (Aldrichina grahami); assay type: biochemical
# Procedure: 10 μl of an inhibitor solution and 10 μl of a trehalase solution (trehalase collected from Aldrichina grahami) were mixed. After 5 minutes incubation at 37° C., 80 μl of a 5 mM trehalose and 50 mM phosphate buffer solution (pH 6.5) was added, followed by an additional one-hour incubation at 37° C. Thereafter, 10 μl of a 50% trichloroacetic acid solution was added to terminate the reaction. Glucose formed in the reaction solution was determined by a new blood sugar test manufactured by Boehringer-Mannheim Ltd. The amount of the enzyme was such that absorbance of the wavelength ([…]) used in the glucose determination when conducted according to the above method without adding the inhibitor would become 1.0. The Trehalostatin concentration which can achieve 50% inhibition of enzyme (trehalase) activity in the above determination method was expressed as 1 unit/ml.
# as §1, with “The mixture is incubated at 37° C. for 10 minutes and then incubated in a boiling water bath for 3 minutes to terminate the reaction.” left out
# as §4
# [7] = test system: Trehalase (Chaetomium aureum); assay: Enzyme inhibition spectrum: trehalase (Chaetomium aureum); assay type: biochemical; details: enzyme 15 μg; pH 5.5, 5 mM trehalase; measuring method A
# Procedure: as §1, §2, §3, §4
# Taka-amylase A = target: T5, Taka-amylase A (Aspergillus oryzae, UniProt P0C1B3); assay: Enzyme inhibition spectrum: Taka-amylase A, starch substrate; assay type: biochemical; set-up: key: ++: ID50 ≤ 1.0 μg; +: ID50 ≥ 1.0 μg; -: no inhibition; details: enzyme 0.5 μg; pH 5.5, 0.5% starch; measuring method printed 69
# T5 construct: purchased SANKYO Co., Ltd
# Procedure: as §1, §2, §3
# [8] = target: T6, β-glycosidase (Asp. aculeatus) (Aspergillus aculeatus, UniProt P48825); assay: Enzyme inhibition spectrum: β-glycosidase (Asp. aculeatus); assay type: biochemical; details: enzyme 15 μg; pH 5.0, 0.5% salicin; measuring method A
# T6 construct: a crude enzyme (prepared by University of Osaka Prefecture); host or cells: Aspergillus aculeatus
# T6 sequence (P48825 20-860): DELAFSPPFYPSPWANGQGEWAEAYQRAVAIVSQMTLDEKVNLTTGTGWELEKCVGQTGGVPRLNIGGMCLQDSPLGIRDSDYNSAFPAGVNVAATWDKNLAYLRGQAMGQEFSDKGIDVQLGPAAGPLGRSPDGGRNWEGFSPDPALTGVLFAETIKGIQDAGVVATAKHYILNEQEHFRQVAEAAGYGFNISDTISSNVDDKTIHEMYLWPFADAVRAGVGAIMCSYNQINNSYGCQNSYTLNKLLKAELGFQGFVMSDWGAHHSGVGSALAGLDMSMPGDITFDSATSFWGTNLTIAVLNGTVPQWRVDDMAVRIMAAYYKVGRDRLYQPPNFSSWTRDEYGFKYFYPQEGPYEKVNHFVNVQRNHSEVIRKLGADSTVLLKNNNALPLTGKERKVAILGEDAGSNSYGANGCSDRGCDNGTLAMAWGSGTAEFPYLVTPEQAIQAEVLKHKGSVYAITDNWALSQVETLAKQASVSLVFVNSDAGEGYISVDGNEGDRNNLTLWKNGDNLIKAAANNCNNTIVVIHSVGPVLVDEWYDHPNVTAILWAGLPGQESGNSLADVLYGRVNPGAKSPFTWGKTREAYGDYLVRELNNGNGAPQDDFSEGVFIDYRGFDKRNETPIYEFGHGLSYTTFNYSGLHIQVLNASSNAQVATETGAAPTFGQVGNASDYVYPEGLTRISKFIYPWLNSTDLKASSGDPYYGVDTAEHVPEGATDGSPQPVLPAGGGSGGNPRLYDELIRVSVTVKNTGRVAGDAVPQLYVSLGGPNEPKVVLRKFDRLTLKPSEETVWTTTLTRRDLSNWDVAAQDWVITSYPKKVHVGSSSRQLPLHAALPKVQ
# Procedure: as §1, §2, §3, §4
# [9] = test system: Carboxymethyl-cellulase (Asp. aculeatus); assay: Enzyme inhibition spectrum: carboxymethyl-cellulase (Asp. aculeatus); assay type: biochemical; set-up: key: ++: ID50 ≤ 1.0 μg; +: ID50 ≥ 1.0 μg; -: no inhibition; details: enzyme 100 μg; pH 5.0, 0.5% CM cellulose; measuring method C
# Procedure: as §1, §2, §3, §5
# [10] = target: T7, Trehalase (bovine colonic mucosa) (Bos taurus, UniProt E1B8N4); assay: Enzyme inhibition spectrum: trehalase (bovine colonic mucosa); assay type: biochemical; details: enzyme 2500 μg; pH 5.5, 5 mM trehalase; measuring method A
# T7 construct: mucosal acetone powder Sigma (M2766); purchased Sigma M2766; host or cells: bovine colonic mucosa, acetone powder
# T7 sequence (E1B8N4 24-579): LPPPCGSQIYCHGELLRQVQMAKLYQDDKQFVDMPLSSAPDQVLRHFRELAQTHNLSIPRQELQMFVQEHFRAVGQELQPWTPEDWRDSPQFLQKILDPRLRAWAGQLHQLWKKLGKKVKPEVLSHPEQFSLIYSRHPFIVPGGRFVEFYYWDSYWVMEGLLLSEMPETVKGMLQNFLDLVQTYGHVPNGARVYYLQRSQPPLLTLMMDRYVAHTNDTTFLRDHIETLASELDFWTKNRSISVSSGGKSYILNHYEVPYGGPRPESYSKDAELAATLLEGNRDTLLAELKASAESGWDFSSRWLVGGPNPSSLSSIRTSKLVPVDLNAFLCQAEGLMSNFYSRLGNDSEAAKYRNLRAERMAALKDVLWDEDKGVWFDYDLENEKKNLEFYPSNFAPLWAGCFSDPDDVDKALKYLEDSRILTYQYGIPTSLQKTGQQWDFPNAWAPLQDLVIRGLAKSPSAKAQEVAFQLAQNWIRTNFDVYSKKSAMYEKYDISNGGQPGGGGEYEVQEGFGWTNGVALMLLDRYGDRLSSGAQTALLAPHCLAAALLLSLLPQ
# Procedure: as §1, §2, §3, §4
# Trehalase (swine kidney) = target: T8, Trehalase (swine kidney) (Sus scrofa, UniProt I3LIR5); assay: Enzyme inhibition spectrum: trehalase (swine kidney); assay type: biochemical; details: enzyme 1.1 unit (nmol glucose/min); pH 6.5, 5 mM trehalase; measuring method A
# T8 construct: purchased Sigma M8778; host or cells: swine kidney
# T8 sequence (I3LIR5 24-583): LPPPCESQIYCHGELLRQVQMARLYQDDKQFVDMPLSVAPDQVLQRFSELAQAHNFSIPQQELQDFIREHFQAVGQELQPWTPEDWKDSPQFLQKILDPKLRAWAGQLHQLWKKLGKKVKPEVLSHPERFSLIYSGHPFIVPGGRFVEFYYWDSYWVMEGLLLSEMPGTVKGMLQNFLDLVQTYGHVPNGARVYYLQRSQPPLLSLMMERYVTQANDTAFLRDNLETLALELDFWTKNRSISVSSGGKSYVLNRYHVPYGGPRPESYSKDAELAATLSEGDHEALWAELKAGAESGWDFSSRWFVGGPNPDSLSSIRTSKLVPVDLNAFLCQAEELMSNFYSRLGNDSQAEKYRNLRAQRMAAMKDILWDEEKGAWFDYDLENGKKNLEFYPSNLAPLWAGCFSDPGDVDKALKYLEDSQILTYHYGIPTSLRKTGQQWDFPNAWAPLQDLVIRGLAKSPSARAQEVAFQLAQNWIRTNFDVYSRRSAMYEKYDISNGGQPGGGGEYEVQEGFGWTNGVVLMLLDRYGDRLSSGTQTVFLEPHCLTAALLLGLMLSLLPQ
# Procedure: as §1, §2, §3, §4
# exo-β-1,3-glucanase = assay: Enzyme inhibition spectrum: exo-β-1,3-glucanase; assay type: biochemical; set-up: key: ++: ID50 ≤ 1.0 μg; +: ID50 ≥ 1.0 μg; -: no inhibition; details: enzyme 15 μg; pH 6.0, 0.1% laminarin; measuring method B
# Procedure: as §1, §2, §3
# (B) An amount of glucose produced was determined according to the method shown in D. R. Barras and B. A. Stone, Biochim. Biophys. Acta, 191, 329 (1969).
# [11] = target: Bacterial saccharifying amylase (Bacillus subtilis, UniProt P00691); assay: Enzyme inhibition spectrum: bacterial saccharifying amylase; assay type: biochemical; set-up: key: ++: ID50 ≤ 1.0 μg; +: ID50 ≥ 1.0 μg; -: no inhibition; details: enzyme 4 μg; pH 5.0, 0.5% starch; measuring method C
# Sequence of Bacterial saccharifying amylase (P00691 42-659): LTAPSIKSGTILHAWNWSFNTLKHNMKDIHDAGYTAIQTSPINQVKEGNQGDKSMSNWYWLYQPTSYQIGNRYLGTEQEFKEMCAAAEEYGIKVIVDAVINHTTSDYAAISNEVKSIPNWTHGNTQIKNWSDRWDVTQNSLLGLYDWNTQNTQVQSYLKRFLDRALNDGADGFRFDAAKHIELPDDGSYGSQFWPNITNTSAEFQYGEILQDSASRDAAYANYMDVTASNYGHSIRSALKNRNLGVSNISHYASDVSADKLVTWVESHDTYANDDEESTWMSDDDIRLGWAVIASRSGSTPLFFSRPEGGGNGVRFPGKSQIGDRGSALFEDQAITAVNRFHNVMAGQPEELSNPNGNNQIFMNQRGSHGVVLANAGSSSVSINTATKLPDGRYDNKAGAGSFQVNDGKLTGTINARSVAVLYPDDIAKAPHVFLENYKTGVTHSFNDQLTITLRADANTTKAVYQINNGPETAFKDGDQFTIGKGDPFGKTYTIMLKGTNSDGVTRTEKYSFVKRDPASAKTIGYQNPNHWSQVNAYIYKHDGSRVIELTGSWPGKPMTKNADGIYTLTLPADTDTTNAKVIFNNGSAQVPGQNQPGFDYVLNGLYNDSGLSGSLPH
# Procedure: as §1, §2, §3, §5
smiles,measurement,setting,value
OC[C@H]1O[C@H](N=C2NC3C(O2)C(O)C(O)C3(O)CO)[C@H](O)[C@@H](O)[C@@H]1O (stereo partly drawn) [Trehalostatin],Solubility,"[1]; in hexane, benzene, ethers and petroleum ether",hardly or only slightly soluble
same,Solubility,[1]; in water,soluble in water
same,Action (ID50),Taka-amylase A (yeast),-
same,Action (ID50),Gluco amylase (almond),-
same,Action (ID50),[2],-
same,Action (ID50),Isoamylase,-
same,Action (ID50),[3],-
same,Action (ID50),[4],-
same,Action (ID50),β-amylase (sweet potato),-
same,Action (ID50),α-glycosidase (yeast),+ (ID50 ≥ 1.0 μg)
same,Action (ID50),[5],-
same,Action (ID50),"[6]; enzyme 24 unit (nmol glucose/min), pH 5.5, 5 mM trehalase, measuring method A",++ (ID50 ≤ 1.0 μg)
same,inhibitory effect against trehalase in insects,"[6]; trehalase in insects, especially Aldrichina grahami, statement in words","effective inhibitory effect against trehalase in insects, especially in Aldrichina grahami, even at a very low concentration"
same,Action (ID50),[7],+ (ID50 ≥ 1.0 μg)
same,Action (ID50),Taka-amylase A,-
same,Action (ID50),[8],+ (ID50 ≥ 1.0 μg)
same,Action (ID50),[9],-
same,Action (ID50),[10],+ (ID50 ≥ 1.0 μg)
same,Action (ID50),Trehalase (swine kidney),+ (ID50 ≥ 1.0 μg)
same,Action (ID50),"exo-β-1,3-glucanase",-
same,Action (ID50),[11],-
